Read-outs that look alike come from different tables or passages of the source.
Experiments:
BRD4(BD1) = BRD4(BD1) (Homo sapiens (Human), UniProt O60885); assay: In vitro enzyme inhibition assay (BRD4 AlphaScreen, H4-tetraacetyl peptide); assay type: binding
Experimental: His-tagged BRD4 was cloned, expressed and purified to homogeneity. […] BRD4 binding and inhibition was assessed by monitoring the interaction of biotinylated H4-tetraacetyl peptide (AnaSpec, H4K5/8/12/16(Ac), biotin-labeled) with the target using the AlphaScreen technology (Life Technologies). […] After 20 min incubation at room temp, Alpha streptavidin donor beads and Nickel Chelate acceptor beads were added to a final concentration of 5 μg/mL.
The ability of the compounds disclosed herein to inhibit BRD4 activity was quantified and the respective IC50 value was determined.

[1] = test system: Raji, human Burkitts lymphoma cells; assay: Cell-MTS cellular proliferation assay, Raji; assay type: cell-based
Experimental: (§1) The Cell-MTS assay is a 7-day plate-based colorimetric assay which quantifies the amount of newly generated NADH in the presence or absence of test compound. The NADH level is used for the quantification of cancer cell proliferation.
(§2) Established cancer cell lines with a variety of driving mutations were obtained from American Type Culture Collection (ATCC) and routinely passaged according to ATCC protocols. For routine assay, these cells were seeded at densities which enabled ˜90% confluence after 7 days of culture. Raji, human Burkitts lymphoma cells, (cMYC) were seeded at 15,000 cells per 96-well. HL-60, human proleukemia cells, (NRAS, p16, p53, c-Myc amplified) were seeded at 5,000 cells per 96-well. NCI-H460, human non-small cell lung cancer cells, (KRAS, PIK3CA, STLK11, p16) were seeded at 3,000 cells per 96-well 24 hr after plating, cells received an 11-point dilution of test compound with final concentration ranges from 100 μM to 2.0 nM. […] At the end of this incubation period, 80 μL of media is removed and 20 μL of CellTiter 96® AQueous Non-Radioactive Cell Proliferation Assay soln (Promega) was added. The cells were incubated until the OD490 was >0.6. IC50 values were calculated using the IDBS XLtit software package and include background subtracted OD490 values and normalization to DMSO controls. Cellular proliferation IC50 values were uploaded and archived using the Chem Biography Platform.

[2] = test system: HL-60, human proleukemia cells; assay: Cell-MTS cellular proliferation assay, HL-60; assay type: cell-based
Experimental: as §1, §2

[3] = test system: NCI-H460, human non-small cell lung cancer cells; assay: Cell-MTS cellular proliferation assay, NCI-H460; assay type: cell-based
Experimental: as §1, §2

[4] = in vitro enzyme inhibition assay, class symbols, read-out: BRD4 IC50

`Cn1cc(-c2cccc(S(N)(=O)=O)c2)c2ccc(F)cc2c1=O` [Example 61, 3-(7-fluoro-2-methyl-1-oxoisoquinolin-4-yl) benzenesulfonamide] was tested, and the IC50 (BRD4(BD1); in vitro enzyme inhibition assay, read-out: BRD4 IC50) was < 0.5 µM, the IC50 ([1]; Cell-MTS proliferation, 168 hr, read-out: Raji IC50) was 0.5 to 5 µM and the IC50 ([2]; Cell-MTS proliferation, 168 hr, read-out: HL-60 IC50) was 0.5 to 5 µM.

With `Cn1cc(-c2cc(S(C)(=O)=O)ncc2OCC2CC2)c2ccc(F)cc2c1=O` [Example 203, 4-[5-(cyclopropylmethoxy)-2-methylsulfonylpyridin-4-yl]-7-fluoro-2-methylisoquinolin-1-one] the IC50 (BRD4(BD1); [4]) was < 0.5 µM, the IC50 ([1]; Homo sapiens, Raji, Cell-MTS proliferation, 168 hr, class symbols, read-out: Raji IC50) was < 0.5 µM and the IC50 ([2]; Homo sapiens, HL-60, Cell-MTS proliferation, 168 hr, class symbols, read-out: HL-60 IC50) was < 0.5 µM. For the same molecule, the IC50 ([3]; Homo sapiens, NCI-H460, 168 hr, class symbols) was > 5 µM.

With `Cn1cc(-c2cc(OS(N)(=O)=O)ccc2OCC2CC2)c2ccccc2c1=O` [Example 214, [4-(cyclopropylmethoxy)-3-(2-methyl-1-oxoisoquinolin-4-yl)phenyl] sulfamate] the IC50 (BRD4(BD1); [4]) was < 0.5 µM.

With `CCNS(=O)(=O)c1cccc(-c2cn(C)c(=O)c3ccc(F)cc23)c1` [Example 49, N-ethyl-3-(6-fluoro-2-methyl-1-oxoisoquinolin-4yl) benzenesulfonamide] the IC50 (BRD4(BD1)) was 0.5 to 5 µM, the IC50 ([1]; Homo sapiens, Raji, 168 h, read-out: Raji IC50 (μM)) was 0.5 to 5 µM and the IC50 ([2]; Homo sapiens, HL-60, 168 h, read-out: HL-60 IC50 (μM)) was 0.5 to 5 µM.

“N-[5-(cyclopropylmethoxy)-4-(7-fluoro-2-methyl-1-oxoisoquinolin-4-yl) pyrimidin-2-yl]methanesulfonamide [Example 158]” was tested, and the IC50 (BRD4(BD1); read-out: BRD4 IC50) was < 0.5 µM, the IC50 ([1]; Cell-MTS proliferation, 168 hr, class symbols, read-out: Raji IC50) was < 0.5 µM and the IC50 ([2]; Cell-MTS proliferation, 168 hr, class symbols, read-out: HL-60 IC50) was < 0.5 µM. The IC50 ([3]; 168 hr, class symbols) was > 5 µM.

For `Cc1cc(-c2cc(OS(N)(=O)=O)ccc2OCC2CC2)cn(C)c1=O` [Example 215, [4-(cyclopropylmethoxy)-3-(1,5-dimethyl-6-oxopyridin-3-yl)phenyl] sulfamate], the IC50 (BRD4(BD1); [4]) was < 0.5 µM.

`COc1ccc(-c2cn(C)c(=O)c3cnccc23)cc1S(=O)(=O)NCc1ccccc1` [Example 54, N-benzyl-2-methoxy-5-(2-methyl-1-oxo-2,7-naphthyridin-4-yl) benzenesulfonamide] was tested, and the IC50 ([1]; Homo sapiens, Raji, Cell-MTS proliferation, 168 hr, read-out: Raji IC50) was > 5 µM, the IC50 ([2]; Homo sapiens, HL-60, Cell-MTS proliferation, 168 hr, read-out: HL-60 IC50) was 0.5 to 5 µM and the IC50 ([3]; Homo sapiens, NCI-H460, 168 hr) was > 5 µM.

From patent US10941160B2, “Bromodomain inhibitors” (CELGENE QUANTICEL RESEARCH, INC., priority 2013, dated 2021)
